Measurements taken from publication PMC5218480 (PLoS ONE, 2017).

System: MV-4-11 cells
Assay: Gene expression microarray analysis (Affymetrix PrimeView) and GSEA
Format: cell-based, human
Set-up: RFU PODN (11730768_x_at) / Fold change /veh PODN (11730768_x_at) / RFU LINC00158 (11744669_a_at) / Fold change /veh LINC00158 (11744669_a_at) / RFU DUSP10 (11751237_a_at) / Fold change /veh DUSP10 (11751237_a_at) / RFU ID3 (11757404_x_at) / Fold change /veh ID3 (11757404_x_at) / RFU PLEKHG5 (11737974_s_at) / Fold change /veh PLEKHG5 (11737974_s_at) / RFU LRRC4B (11730491_at) / Fold change /veh LRRC4B (11730491_at) / RFU GIMAP4 (11747438_a_at) / Fold change /veh GIMAP4 (11747438_a_at) / RFU KRT8 (11758183_x_at) / Fold change /veh KRT8 (11758183_x_at) / RFU CNN1 (11734310_a_at) / Fold change /veh CNN1 (11734310_a_at) / RFU VPS37D (11726825_at) / Fold change /veh VPS37D (11726825_at) / RFU C10orf10 (11716522_x_at) / Fold change /veh C10orf10 (11716522_x_at) / RFU KIR2DL2 /// KIR2DL4 /// KIR2DL5A /// KIR2DL5B /// KIR2DS1 /// KIR2DS2 /// KIR2DS3 /// KIR2DS4 /// KIR3DL3 /// KIR3DL3 /// KIR3DS1 (11738374_at) / Fold change /veh KIR2DL2 /// KIR2DL4 /// KIR2DL5A /// KIR2DL5B /// KIR2DS1 /// KIR2DS2 /// KIR2DS3 /// KIR2DS4 /// KIR3DL3 /// KIR3DL3 /// KIR3DS1 (11738374_at) / RFU C1QL1 (11718748_at) / Fold change /veh C1QL1 (11718748_at) / RFU TMPRSS4 (11747572_a_at) / Fold change /veh TMPRSS4 (11747572_a_at) / RFU HAMP (11756126_x_at) / Fold change /veh HAMP (11756126_x_at) / RFU RNFT2 (11725882_a_at) / Fold change /veh RNFT2 (11725882_a_at) / RFU NR4A2 (11747474_a_at) / Fold change /veh NR4A2 (11747474_a_at) / RFU ABCC12 (11746883_a_at) / Fold change /veh ABCC12 (11746883_a_at) / RFU TMEM136 (11760407_x_at) / Fold change /veh TMEM136 (11760407_x_at) / RFU CLDN22 /// WWC2 (11732394_at) / Fold change /veh CLDN22 /// WWC2 (11732394_at) / RFU HLA-DPB1 (11760878_x_at) / Fold change /veh HLA-DPB1 (11760878_x_at) / RFU SPINT1 (11716480_a_at) / Fold change /veh SPINT1 (11716480_a_at) / RFU GAP43 (11754022_s_at) / Fold change /veh GAP43 (11754022_s_at) / RFU A4GNT (11735810_at) / Fold change /veh A4GNT (11735810_at) / RFU PRB3 (11715151_x_at) / Fold change /veh PRB3 (11715151_x_at) / RFU TUBB4B (11761932_at) / Fold change /veh TUBB4B (11761932_at) / RFU CAPN14 (11732068_a_at) / Fold change /veh CAPN14 (11732068_a_at) / RFU TMCC2 (11721928_a_at) / Fold change /veh TMCC2 (11721928_a_at) / RFU IRGQ (11745062_a_at) / Fold change /veh IRGQ (11745062_a_at) / RFU FAM174B (11720279_a_at) / Fold change /veh FAM174B (11720279_a_at) / RFU TMPRSS4 (11748680_a_at) / Fold change /veh TMPRSS4 (11748680_a_at) / RFU FAM212B (11763350_a_at) / Fold change /veh FAM212B (11763350_a_at) / RFU PLEKHG5 (11743358_a_at) / Fold change /veh PLEKHG5 (11743358_a_at) / RFU ZSCAN30 (11745921_a_at) / Fold change /veh ZSCAN30 (11745921_a_at) / RFU CMKLR1 (11741424_a_at) / Fold change /veh CMKLR1 (11741424_a_at) / RFU LOC101060620 /// MAPK8IP1 (11723275_at) / Fold change /veh LOC101060620 /// MAPK8IP1 (11723275_at) / RFU SPTSSB (11747773_x_at) / Fold change /veh SPTSSB (11747773_x_at) / RFU PRSS12 (11739890_at) / Fold change /veh PRSS12 (11739890_at) / RFU BIN1 (11741810_x_at) / Fold change /veh BIN1 (11741810_x_at) / RFU WNT11 (11732464_a_at) / Fold change /veh WNT11 (11732464_a_at) / RFU C10orf10 (11716521_a_at) / Fold change /veh C10orf10 (11716521_a_at) / RFU C5orf56 (11738089_at) / Fold change /veh C5orf56 (11738089_at) / RFU CYB561 (11721691_x_at) / Fold change /veh CYB561 (11721691_x_at) / RFU ANKRD19P (11752326_a_at) / Fold change /veh ANKRD19P (11752326_a_at) / RFU OR2T12 /// OR2T33 /// OR2T8 (11738714_s_at) / Fold change /veh OR2T12 /// OR2T33 /// OR2T8 (11738714_s_at) / RFU VCAN (11748164_a_at) / Fold change /veh VCAN (11748164_a_at) / RFU JSRP1 (11732532_at) / Fold change /veh JSRP1 (11732532_at) / RFU KRTAP10-11 (11738290_x_at) / Fold change /veh KRTAP10-11 (11738290_x_at) / RFU MYO3A (11730013_a_at) / Fold change /veh MYO3A (11730013_a_at) / RFU EBF3 (11725865_a_at) / Fold change /veh EBF3 (11725865_a_at) / RFU CAMK2N1 (11719241_x_at) / Fold change /veh CAMK2N1 (11719241_x_at) / RFU C5orf56 (11738088_a_at) / Fold change /veh C5orf56 (11738088_a_at) / RFU OLFML3 (11715873_a_at) / Fold change /veh OLFML3 (11715873_a_at) / RFU LOC100653217 /// NTM (11731650_a_at) / Fold change /veh LOC100653217 /// NTM (11731650_a_at) / RFU MAPK11 (11762145_a_at) / Fold change /veh MAPK11 (11762145_a_at) / RFU FIZ1 (11724087_x_at) / Fold change /veh FIZ1 (11724087_x_at) / RFU OASL (11726364_x_at) / Fold change /veh OASL (11726364_x_at) / RFU SOX15 (11748057_x_at) / Fold change /veh SOX15 (11748057_x_at) / RFU CD79A (11719716_a_at) / Fold change /veh CD79A (11719716_a_at) / RFU HIST1H1D (11736915_at) / Fold change /veh HIST1H1D (11736915_at) / RFU CASKIN2 (11723855_a_at) / Fold change /veh CASKIN2 (11723855_a_at) / RFU LOC730098 (11760151_x_at) / Fold change /veh LOC730098 (11760151_x_at) / RFU OR4N2 (11742367_at) / Fold change /veh OR4N2 (11742367_at) / RFU PRRT2 (11749266_a_at) / Fold change /veh PRRT2 (11749266_a_at) / RFU SNX32 (11753110_a_at) / Fold change /veh SNX32 (11753110_a_at) / RFU CDHR5 (11726645_a_at) / Fold change /veh CDHR5 (11726645_a_at) / RFU RCAN1 (11760418_a_at) / Fold change /veh RCAN1 (11760418_a_at) / RFU FAM167A (11723789_a_at) / Fold change /veh FAM167A (11723789_a_at) / RFU FAM26E (11764081_at) / Fold change /veh FAM26E (11764081_at) / RFU ISYNA1 (11749810_s_at) / Fold change /veh ISYNA1 (11749810_s_at) / RFU ACY1 (11761880_at) / Fold change /veh ACY1 (11761880_at) / RFU 11764098_at / Fold change /veh 11764098_at / RFU SAMD14 (11745864_x_at) / Fold change /veh SAMD14 (11745864_x_at) / RFU NPB (11741838_a_at) / Fold change /veh NPB (11741838_a_at) / RFU TMPRSS6 (11731388_a_at) / Fold change /veh TMPRSS6 (11731388_a_at) / RFU KRTAP10-2 (11738614_at) / Fold change /veh KRTAP10-2 (11738614_at) / RFU ARHGAP8 /// PRR5-ARHGAP8 (11727945_x_at) / Fold change /veh ARHGAP8 /// PRR5-ARHGAP8 (11727945_x_at) / RFU KRTAP5-7 /// NADSYN1 (11734609_at) / Fold change /veh KRTAP5-7 /// NADSYN1 (11734609_at) / RFU RASL12 (11751679_a_at) / Fold change /veh RASL12 (11751679_a_at) / RFU CDKN2B (11736163_a_at) / Fold change /veh CDKN2B (11736163_a_at) / RFU PRF1 (11729649_at) / Fold change /veh PRF1 (11729649_at) / RFU, ZNF638 /// ZNF638-IT1 / Fold change vs veh, ZNF638 /// ZNF638-IT1 / RFU, PANK3 / Fold change vs veh, PANK3 / RFU, SH3YL1 / Fold change vs veh, SH3YL1 / RFU, ZEB2 / Fold change vs veh, ZEB2 / RFU, NRIP1 / Fold change vs veh, NRIP1 / RFU, PTTG1IP / Fold change vs veh, PTTG1IP / RFU, CAPN2 / Fold change vs veh, CAPN2 / RFU, MED14 / Fold change vs veh, MED14 / RFU, SNORA58 / Fold change vs veh, SNORA58 / RFU, C1orf63 / Fold change vs veh, C1orf63 / RFU, LRRFIP1 / Fold change vs veh, LRRFIP1 / RFU, NDUFAF7 / Fold change vs veh, NDUFAF7 / RFU, SLC12A2 / Fold change vs veh, SLC12A2 / RFU, IBTK / Fold change vs veh, IBTK / RFU, ESF1 / Fold change vs veh, ESF1 / Fold change vs veh, TMEM50B / RFU, TAOK1 / Fold change vs veh, TAOK1 / RFU, ACBD3 / Fold change vs veh, ACBD3 / RFU, TMA16 / Fold change vs veh, TMA16 / RFU, RWDD3 / Fold change vs veh, RWDD3 / RFU, BCAT1 / Fold change vs veh, BCAT1 / RFU, EDEM3 / Fold change vs veh, EDEM3 / RFU, TMEM33 / Fold change vs veh, TMEM33 / RFU, WDR75 / Fold change vs veh, WDR75 / RFU, AHCTF1 / Fold change vs veh, AHCTF1 / RFU, TFRC / Fold change vs veh, TFRC / RFU, ZDHHC17 / Fold change vs veh, ZDHHC17 / RFU, NOM1 / Fold change vs veh, NOM1 / RFU, ARL8B / Fold change vs veh, ARL8B / RFU, ZBTB11 / Fold change vs veh, ZBTB11 / RFU, TAMM41 / Fold change vs veh, TAMM41 / RFU, KIAA1704 /// LOC100996395 / Fold change vs veh, KIAA1704 /// LOC100996395 / RFU, ING1 / Fold change vs veh, ING1 / RFU, TRMT61B / Fold change vs veh, TRMT61B / RFU, FUBP3 / Fold change vs veh, FUBP3 / RFU, TP53 / Fold change vs veh, TP53 / RFU, TNKS2 / Fold change vs veh, TNKS2 / RFU, ZFP14 / Fold change vs veh, ZFP14 / RFU, ACTR2 / Fold change vs veh, ACTR2 / RFU, PPP3R1 / Fold change vs veh, PPP3R1 / RFU, PIK3R1 / Fold change vs veh, PIK3R1 / RFU, HNRNPA1 / Fold change vs veh, HNRNPA1 / RFU, RNF170 / Fold change vs veh, RNF170 / RFU, ZNF28 / Fold change vs veh, ZNF28 / RFU, RNGTT / Fold change vs veh, RNGTT / RFU, OGT / Fold change vs veh, OGT / RFU, BRD1 / Fold change vs veh, BRD1 / RFU, MARS / Fold change vs veh, MARS / RFU, ZNF655 / Fold change vs veh, ZNF655 / RFU, FAHD1 / Fold change vs veh, FAHD1 / RFU, BDP1 / Fold change vs veh, BDP1 / RFU, LRRCC1 / Fold change vs veh, LRRCC1 / RFU, ARID1A / Fold change vs veh, ARID1A / RFU, ZNF146 / Fold change vs veh, ZNF146 / RFU, ZNF330 / Fold change vs veh, ZNF330 / RFU, GPN3 / Fold change vs veh, GPN3 / RFU, C9orf123 / Fold change vs veh, C9orf123 / RFU, N4BP2L2 / Fold change vs veh, N4BP2L2 / RFU, ARFIP1 / Fold change vs veh, ARFIP1 / RFU, FAM179B / Fold change vs veh, FAM179B / RFU, BCL10 / Fold change vs veh, BCL10 / RFU, UHRF1BP1L / Fold change vs veh, UHRF1BP1L / RFU, BET1 / Fold change vs veh, BET1 / RFU, CNOT2 / Fold change vs veh, CNOT2 / RFU, ZNF268 / Fold change vs veh, ZNF268 / Fold change vs veh, ZNF507 / RFU, DGCR2 / Fold change vs veh, DGCR2 / RFU, WDSUB1 / Fold change vs veh, WDSUB1 / Fold change vs veh, HSP90B1 /// MIR3652 / RFU, ADSS / Fold change vs veh, ADSS / RFU, GK / Fold change vs veh, GK / RFU, ZNF148 / Fold change vs veh, ZNF148 / RFU, TAF9 / Fold change vs veh, TAF9 / RFU, SLC1A5 / Fold change vs veh, SLC1A5 / RFU, SLMO2 / Fold change vs veh, SLMO2 / RFU, ABCC4 / Fold change vs veh, ABCC4 / RFU, LOC101060439 /// RAP1B / Fold change vs veh, LOC101060439 /// RAP1B / RFU, RFX7 / Fold change vs veh, RFX7 / RFU, GTPBP10 / Fold change vs veh, GTPBP10 / RFU, CNEP1R1 / Fold change vs veh, CNEP1R1 / RFU, BIVM-ERCC5 /// ERCC5 / Fold change vs veh, BIVM-ERCC5 /// ERCC5 / RFU, ILF3 / Fold change vs veh, ILF3 / RFU 11762660_at / Fold change /veh 11762660_at / RFU VCAN (11757783_s_at) / Fold change /veh VCAN (11757783_s_at) / RFU DDX43 (11728927_at) / Fold change /veh DDX43 (11728927_at) / RFU KRT8 (11758188_x_at) / Fold change /veh KRT8 (11758188_x_at) / RFU NKD1 (11759106_at) / Fold change /veh NKD1 (11759106_at) / RFU SRD5A1 (11742802_a_at) / Fold change /veh SRD5A1 (11742802_a_at) / RFU TPSAB1 /// TPSB2 (11721975_s_at) / Fold change /veh TPSAB1 /// TPSB2 (11721975_s_at) / RFU GSTM3 (11746129_a_at) / Fold change /veh GSTM3 (11746129_a_at) / RFU IL23R (11737362_x_at) / Fold change /veh IL23R (11737362_x_at) / RFU TMEM51 (11727254_a_at) / Fold change /veh TMEM51 (11727254_a_at) / RFU PIWIL2 (11732686_x_at) / Fold change /veh PIWIL2 (11732686_x_at) / RFU ORM1 (11744905_x_at) / Fold change /veh ORM1 (11744905_x_at) / RFU CCDC152 (11743942_at) / Fold change /veh CCDC152 (11743942_at) / RFU ECM1 (11717891_a_at) / Fold change /veh ECM1 (11717891_a_at) / RFU IL23R (11748794_a_at) / Fold change /veh IL23R (11748794_a_at) / RFU TNFAIP8L3 (11732012_x_at) / Fold change /veh TNFAIP8L3 (11732012_x_at) / RFU MBOAT4 (11741988_at) / Fold change /veh MBOAT4 (11741988_at) / RFU 11764193_at / Fold change /veh 11764193_at / RFU TMEM53 (11763286_at) / Fold change /veh TMEM53 (11763286_at) / RFU MAGEB2 (11727129_at) / Fold change /veh MAGEB2 (11727129_at) / RFU TMEM200A (11744735_a_at) / Fold change /veh TMEM200A (11744735_a_at) / RFU CCDC152 (11751479_a_at) / Fold change /veh CCDC152 (11751479_a_at) / RFU FAM211A (11726209_a_at) / Fold change /veh FAM211A (11726209_a_at) / RFU RGS16 (11746705_a_at) / Fold change /veh RGS16 (11746705_a_at) / RFU VCAN (11755009_s_at) / Fold change /veh VCAN (11755009_s_at) / RFU RHOB (11743442_s_at) / Fold change /veh RHOB (11743442_s_at) / RFU RGS16 (11720943_a_at) / Fold change /veh RGS16 (11720943_a_at) / RFU RGS16 (11720944_at) / Fold change /veh RGS16 (11720944_at) / RFU, VPS4B / Fold change vs veh, VPS4B / RFU, CREB1 / Fold change vs veh, CREB1 / RFU, DNAJC13 / Fold change vs veh, DNAJC13 / RFU, GNAQ / Fold change vs veh, GNAQ / RFU, CDK5R1 / Fold change vs veh, CDK5R1 / RFU, ZRANB3 / Fold change vs veh, ZRANB3 / RFU, CUL4A / Fold change vs veh, CUL4A / RFU, CCNY / Fold change vs veh, CCNY / RFU, UFL1 / Fold change vs veh, UFL1 / RFU, COG3 / Fold change vs veh, COG3 / RFU, DIAPH2 / Fold change vs veh, DIAPH2 / RFU, SKA2 / Fold change vs veh, SKA2 / RFU, AFF3 / Fold change vs veh, AFF3 / RFU, LMF1 / Fold change vs veh, LMF1 / RFU, IPO11 / Fold change vs veh, IPO11 / RFU, DFFB / Fold change vs veh, DFFB / RFU, FOXP1 / Fold change vs veh, FOXP1 / RFU, CARD8 / Fold change vs veh, CARD8 / RFU, STRN3 / Fold change vs veh, STRN3 / RFU, ADK / Fold change vs veh, ADK / RFU, RASSF2 / Fold change vs veh, RASSF2 / RFU, WIPF1 / Fold change vs veh, WIPF1 / RFU, LARP1B / Fold change vs veh, LARP1B / RFU, RASA1 / Fold change vs veh, RASA1 / RFU, RB1 / Fold change vs veh, RB1 / RFU, PPFIA1 / Fold change vs veh, PPFIA1 / RFU, MAT2A / Fold change vs veh, MAT2A / RFU, CCT5 / Fold change vs veh, CCT5 / RFU, WDR92 / Fold change vs veh, WDR92 / RFU, CUX1 / Fold change vs veh, CUX1 / RFU, TTC7A / Fold change vs veh, TTC7A / RFU, TMEM135 / Fold change vs veh, TMEM135 / RFU, DEPTOR / Fold change vs veh, DEPTOR / RFU, CPM / Fold change vs veh, CPM / RFU, DNAJB6 / Fold change vs veh, DNAJB6 / RFU, CACNA2D3 / Fold change vs veh, CACNA2D3 / RFU, DTX4 / Fold change vs veh, DTX4 / RFU, TFCP2 / Fold change vs veh, TFCP2 / RFU, GMCL1 /// GMCL1P1 / Fold change vs veh, GMCL1 /// GMCL1P1 / RFU, AEBP2 / Fold change vs veh, AEBP2 / RFU, SNHG1 /// SNORD22 /// SNORD25 /// SNORD26 /// SNORD27 /// SNORD28 /// SNORD29 /// SNORD31 / Fold change vs veh, SNHG1 /// SNORD22 /// SNORD25 /// SNORD26 /// SNORD27 /// SNORD28 /// SNORD29 /// SNORD31 / Fold change (Aza/veh), C12orf56 (ProbeSet 11735607_a_at) / Fold change (ACY-1035/veh), C12orf56 (ProbeSet 11735607_a_at) / Fold change (Aza/veh), FGFR1OP (ProbeSet 11751329_s_at) / Fold change (ACY-1035/veh), FGFR1OP (ProbeSet 11751329_s_at) / Fold change (Aza/veh), VPS36 (ProbeSet 11739960_a_at) / Fold change (ACY-1035/veh), VPS36 (ProbeSet 11739960_a_at) / RFU SYPL1 (11715823_x_at) / Fold change /veh SYPL1 (11715823_x_at) / RFU IGFBP7 (11715501_s_at) / Fold change /veh IGFBP7 (11715501_s_at) / RFU REEP3 (11722064_at) / Fold change /veh REEP3 (11722064_at) / RFU IGLL1 (11728026_x_at) / Fold change /veh IGLL1 (11728026_x_at): dose or concentration left out as unconfirmed
Conditions: ProbeSet 11721521_at; LIST B

Nc1ccc(-c2cccs2)cc1NC(=O)c1ccc2c(c1)cc(C1CC1)n2CCN1CCOCC1 [ACY-1035]
Fold change vs veh, ZDHHC17: 0.90
